The compounds below were run against T1, recombinant human Myt1 (full length PKMYT1) (Homo sapiens, UniProt Q99640) (assay: ADP-Glo assay (Myt1 kinase activity)).
T1 sequence (Q99640 1-499): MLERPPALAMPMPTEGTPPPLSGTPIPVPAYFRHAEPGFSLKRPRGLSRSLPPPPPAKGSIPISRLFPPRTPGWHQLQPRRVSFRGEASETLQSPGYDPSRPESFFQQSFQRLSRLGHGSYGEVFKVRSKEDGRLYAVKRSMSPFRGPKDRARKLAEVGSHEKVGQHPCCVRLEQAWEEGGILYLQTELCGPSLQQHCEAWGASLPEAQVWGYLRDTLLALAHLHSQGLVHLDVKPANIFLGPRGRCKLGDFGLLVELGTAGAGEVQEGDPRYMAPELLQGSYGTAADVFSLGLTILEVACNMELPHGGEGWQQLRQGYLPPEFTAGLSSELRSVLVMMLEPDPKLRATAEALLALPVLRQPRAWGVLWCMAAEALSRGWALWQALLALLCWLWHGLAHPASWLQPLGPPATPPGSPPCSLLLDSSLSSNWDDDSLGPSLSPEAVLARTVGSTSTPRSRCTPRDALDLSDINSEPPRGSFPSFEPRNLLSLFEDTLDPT

Row | SMILES | IC50 [nM]
1 | Cc1ncc(OCC(F)F)c2c(-c3ccc(F)c4[nH]ncc34)c(N)c(=O)[nH]c12 [Example 186, 3-Amino-5-(2,2-difluoroethoxy)-4-(7-fluoro-1H-indazol-4-yl)-8-methyl-1H-1,7-naphthyridin-2-one] | 15.8
2 | CCc1nc2c(-c3ccc(F)c4[nH]ncc34)c(N)c(=O)[nH]c2cc1C [Example 157, 3-Amino-6-ethyl-4-(7-fluoro-1H-indazol-4-yl)-7-methyl-1H-1,5-naphthyridin-2-one] | 15.6
3 | Cc1cc2[nH]c(=O)c(N)c(-c3ccc(F)c4[nH]ncc34)c2nc1-c1ncco1 [Example 154, 3-Amino-4-(7-fluoro-1H-indazol-4-yl)-7-methyl-6-oxazol-2-yl-1H-1,5-naphthyridin-2-one] | < 10
4 | Cc1c(C2CCCC2)cnc2c(-c3ccc(F)c4[nH]ncc34)c(N)c(=O)[nH]c12 [Example 126, 3-Amino-7-cyclopentyl-4-(7-fluoro-1H-indazol-4-yl)-8-methyl-1H-1,5-naphthyridin-2-one] | < 10
5 | Cc1cc(Cl)c2c(-c3ccc(F)c4[nH]ncc34)c(N)c(=O)[nH]c2c1 [Example 103, 3-Amino-5-chloro-4-(7-fluoro-1H-indazol-4-yl)-7-methyl-1H-quinolin-2-one] | < 10
6 | Cc1c(CC2CC2)cnc2c(-c3ccc(F)c4[nH]ncc34)c(N)c(=O)[nH]c12 [Example 131, 3-Amino-7-(cyclopropylmethyl)-4-(7-fluoro-1H-indazol-4-yl)-8-methyl-1H-1,5-naphthyridin-2-one] | 17.5
7 | COc1ncc(F)c2[nH]c(=O)c(N)c(-c3ccc(F)c4[nH]ncc34)c12 [Example 170, 3-amino-8-fluoro-4-(7-fluoro-1H-indazol-4-yl)-5-methoxy-1H-1,6-naphthyridin-2-one] | 12.6
8 | Nc1c(-c2ccc(F)c3[nH]ncc23)c2c(OC(F)F)nc(C3CC3)cc2[nH]c1=O [Example 168, 3-Amino-7-cyclopropyl-5-(difluoromethoxy)-4-(7-fluoro-1H-indazol-4-yl)-1H-1,6-naphthyridin-2-one] | 11.2
9 | Cc1cc2[nH]c(=O)c(N)c(-c3ccc(F)c4[nH]ncc34)c2cc1Br [Example 104, 3-Amino-6-bromo-4-(7-fluoro-1H-indazol-4-yl)-7-methyl-1H-quinolin-2-one] | 15.7
10 | COc1cnc2c(-c3ccc(F)c4[nH]ncc34)c(N)c(=O)[nH]c2c1 [Example 6, 3-Amino-4-(7-fluoro-1H-indazol-4-yl)-7-methoxy-1H-1,5-naphthyridin-2-one] | 22.6
11 | Cc1c(Cl)nc2c(-c3ccc(F)c4[nH]ncc34)c(N)c(=O)[nH]c2c1C [Example 49, 3-Amino-6-chloro-4-(7-fluoro-1H-indazol-4-yl)-7,8-dimethyl-1H-1,5-naphthyridin-2-one] | < 10
12 | Cc1cc2[nH]c(=O)c(N)c(-c3ccc(F)c4[nH]ncc34)c2nc1N1CCOCC1 [Example 25, 3-Amino-4-(7-fluoro-1H-indazol-4-yl)-7-methyl-6-morpholino-1H-1,5-naphthyridin-2-one] | 18.8
13 | Cc1c(F)cnc2c(-c3ccc(F)c4[nH]ncc34)c(N)c(=O)[nH]c12 [Example 135, 3-Amino-7-fluoro-4-(7-fluoro-1H-indazol-4-yl)-8-methyl-1H-1,5-naphthyridin-2-one] | 14
14 | COc1nc(C2CC2)cc2[nH]c(=O)c(N)c(-c3ccc(F)c4[nH]ncc34)c12 [Example 169, 3-Amino-7-cyclopropyl-4-(7-fluoro-1H-indazol-4-yl)-5-methoxy-1H-1,6-naphthyridin-2-one] | 13.4
15 | Cc1cc2[nH]c(=O)c(N)c(-c3ccc(F)c4[nH]ncc34)c2nc1-c1cscn1 [Example 152, 3-Amino-4-(7-fluoro-1H-indazol-4-yl)-7-methyl-6-thiazol-4-yl-1H-1,5-naphthyridin-2-one] | 13.8
16 | Cc1ncc(Cl)c2c(-c3ccc(F)c4[nH]ncc34)c(N)c(=O)[nH]c12 [Example 176, 3-Amino-5-chloro-4-(7-fluoro-1H-indazol-4-yl)-8-methyl-1H-1,7-naphthyridin-2-one] | 14.3
17 | Cc1cc2[nH]c(=O)c(N)c(-c3ccc(F)c4[nH]ncc34)c2nc1C1COC1 [Example 093, 3-Amino-4-(7-fluoro-1H-indazol-4-yl)-7-methyl-6-(oxetan-3-yl)-1H-1,5-naphthyridin-2-one] | 11.9
18 | Cc1cc2[nH]c(=O)c(N)c(-c3ccc(F)c4[nH]ncc34)c2nc1C(C)(C)O [Example 088, 3-Amino-4-(7-fluoro-1H-indazol-4-yl)-6-(1-hydroxy-1-methyl-ethyl)-7-methyl-1H-1,5-naphthyridin-2-one] | 47

Row | SMILES | IC50 [nM]
19 | Cc1cc2[nH]c(=O)c(N)c(-c3ccc(F)c4[nH]ncc34)c2nc1-c1ccccn1 [Example 155, 3-Amino-4-(7-fluoro-1H-indazol-4-yl)-7-methyl-6-(2-pyridyl)-1H-1,5-naphthyridin-2-one] | 14.7
20 | Cc1cc2[nH]c(=O)c(N)c(-c3ccc(F)c4[nH]ncc34)c2nc1OC1CC(C(C)(C)O)C1 (stereo not drawn) [Example 096, 3-Amino-4-(7-fluoro-1H-indazol-4-yl)-6-[3-(1-hydroxy-1-methyl-ethyl)cyclobutoxy]-7-methyl-1H-1,5-naphthyridin-2-one] | 65.2
21 | Cc1ncc(OCc2ccccc2)c2c(-c3ccc(F)c4[nH]ncc34)c(N)c(=O)[nH]c12 [Example 181, 3-Amino-5-benzyloxy-4-(7-fluoro-1H-indazol-4-yl)-8-methyl-1H-1,7-naphthyridin-2-one] | 20
22 | Cc1cc2[nH]c(=O)c(N)c(-c3ccc(F)c4[nH]ncc34)c2nc1OCC1CC1 [Example 47, 3-Amino-6-(cyclopropylmethoxy)-4-(7-fluoro-1H-indazol-4-yl)-7-methyl-1H-1,5-naphthyridin-2-one] | < 10
23 | Cc1nc2c(-c3ccc(F)c4[nH]ncc34)c(N)c(=O)[nH]c2cc1Cl [Example 52, 3-Amino-7-chloro-4-(7-fluoro-1H-indazol-4-yl)-6-methyl-1H-1,5-naphthyridin-2-one] | < 10
24 | C#Cc1nc2c(-c3ccc(F)c4[nH]ncc34)c(N)c(=O)[nH]c2c(Cl)c1C [Example 111, 3-Amino-8-chloro-6-ethynyl-4-(7-fluoro-1H-indazol-4-yl)-7-methyl-1H-1,5-naphthyridin-2-one] | < 10
25 | CCCOc1cnc(C)c2[nH]c(=O)c(N)c(-c3ccc(F)c4[nH]ncc34)c12 [Example 190, 3-Amino-4-(7-fluoro-1H-indazol-4-yl)-8-methyl-5-propoxy-1H-1,7-naphthyridin-2-one] | 15.3
26 | CC(C)(O)c1cnc2c(-c3ccc(F)c4[nH]ncc34)c(N)c(=O)[nH]c2c1 [Example 20, 3-Amino-4-(7-fluoro-1H-indazol-4-yl)-7-(1-hydroxy-1-methyl-ethyl)-1H-1,5-naphthyridin-2-one] | 24.2
27 | Cc1c(OCC(F)(F)F)cnc2c(-c3ccc(F)c4[nH]ncc34)c(N)c(=O)[nH]c12 [Example 137, 3-Amino-4-(7-fluoro-1H-indazol-4-yl)-8-methyl-7-(2,2,2-trifluoroethoxy)-1H-1,5-naphthyridin-2-one] | 14.1
28 | Cc1cc2[nH]c(=O)c(N)c(-c3ccc(F)c4[nH]ncc34)c2nc1-c1cccs1 [Example 151, 3-Amino-4-(7-fluoro-1H-indazol-4-yl)-7-methyl-6-(2-thienyl)-1H-1,5-naphthyridin-2-one] | 13
29 | COc1c(C)cnc2c(-c3ccc(F)c4[nH]ncc34)c(N)c(=O)[nH]c12 [Example 51, 3-Amino-4-(7-fluoro-1H-indazol-4-yl)-8-methoxy-7-methyl-1H-1,5-naphthyridin-2-one] | 17.9
30 | Cc1cc2[nH]c(=O)c(N)c(-c3ccc(F)c4[nH]ncc34)c2nc1N1CCN(C2CC2)CC1 [Example 29, 3-Amino-6-(4-cyclopropylpiperazin-1-yl)-4-(7-fluoro-1H-indazol-4-yl)-7-methyl-1H-1,5-naphthyridin-2-one] | 12
31 | COc1ncc(Cl)c2[nH]c(=O)c(N)c(-c3ccc(F)c4[nH]ncc34)c12 [Example 171, 3-Amino-8-chloro-4-(7-fluoro-1H-indazol-4-yl)-5-methoxy-1H-1,6-naphthyridin-2-one] | 15.8
32 | CCCOc1nc2c(-c3ccc(F)c4[nH]ncc34)c(N)c(=O)[nH]c2cc1C [Example 065, 3-Amino-4-(7-fluoro-1H-indazol-4-yl)-7-methyl-6-propoxy-1H-1,5-naphthyridin-2-one] | 14.7
33 | Cc1c(C2CCC2)cnc2c(-c3ccc(F)c4[nH]ncc34)c(N)c(=O)[nH]c12 [Example 119, 3-Amino-7-cyclobutyl-4-(7-fluoro-1H-indazol-4-yl)-8-methyl-1H-1,5-naphthyridin-2-one] | 13
34 | Cc1ncc(OCCC(F)F)c2c(-c3ccc(F)c4[nH]ncc34)c(N)c(=O)[nH]c12 [Example 188, 3-Amino-5-(3,3-difluoropropoxy)-4-(7-fluoro-1H-indazol-4-yl)-8-methyl-1H-1,7-naphthyridin-2-one] | 15
35 | Cc1c(I)cnc2c(-c3ccc(F)c4[nH]ncc34)c(N)c(=O)[nH]c12 [Example 116, 3-Amino-4-(7-fluoro-1H-indazol-4-yl)-7-iodo-8-methyl-1H-1,5-naphthyridin-2-one] | < 10
36 | Cc1nc2c(-c3ccc(F)c4[nH]ncc34)c(N)c(=O)[nH]c2c(C)c1Cl [Example 56, 3-Amino-7-chloro-4-(7-fluoro-1H-indazol-4-yl)-6,8-dimethyl-1H-1,5-naphthyridin-2-one] | < 10
